Data: ChEMBL document CHEMBL5725403, “Compounds and pharmaceutical compositions thereof for the treatment of inflammatory disorders” (2017)

Biological target: Autotaxin (Homo sapiens, UniProt Q13822)
Experiment: Human ENPP2 (hENPP2) Assay: Compound IC50 values are determined in a hENPP2 (UniProtKB/SwissProt Sequence ref Q13822) biochemical assay using LPC as substrate. […] The enzyme is diluted in 50 mM Tris-HCl pH 8.5, 500 mM NaCl, 5 mM KCl, 10 mM CaCl2, 0.1% fatty acid free BSA in a total volume of 10 μL. the reaction is started by the addition of 10 μL of 150 μM LPC (palmitoyl 16:0) diluted in the same buffer as described above and the mixture is incubated at 37° C. for 30 min. The reaction is terminated and choline quantified by the addition of a 25 μL of a mixture containing 0.6 U/mL of choline oxidase, 0.6 U/mL of peroxydase, 1.8 mM TOOS, 1.2 mM amino-antipyrine, 20 mM EGTA (stop-developer solution) diluted in the buffer described above. […] is read on the Envision after an incubation of 30 min at room temperature (Excitation 555 nm, excitation light=70%).

CCc1nc2ccc(C3CCN(S(C)(=O)=O)CC3)cn2c1N(C)c1nc(-c2ccc(F)cc2)c(Br)s1
IC50: > 1000 nM
